Source: patent US8877778B2, “Benzofurane compounds” (Hoffmann-La Roche Inc., priority 2010, dated 2014)

Columns and labels:
human D2 receptor = human D2 receptor (Homo sapiens (Human), UniProt P14416); assay: Radioligand binding ([3H]-spiperone) to cloned receptors expressed in HEK-293 EBNA cells; settings: HEK293 EBNA cell membranes expressing human D2
Experimental: (§1) HEK293 EBNA cells were transiently transfected with expression plasmids encoding for the human D2 or D3 or for the human 5-HT2A receptor, respectively. The cells were harvested 48 h post-transfection, washed three times with cold PBS and stored at −80° C. prior to use. The pellet was suspended in cold 50 mM Tris-HCl buffer comprising 10 mM EDTA (pH 7.4) and was homogenized with a Polytron (Kinematica AG, Basel, Switzerland) for 20-30 sec at 12.000 rpm. After centrifugation at 48.000×g for 30 min at 4° C., the pellet was resuspended in cold 10 mM Tris-HCl buffer comprising 0.1 mM EDTA (pH 7.4), homogenized, and centrifuged as above. This pellet was further resuspended in a smaller volume of ice cold 10 mM Tris-HCl buffer comprising 0.1 mM EDTA (pH 7.4) and homogenized with a Polytron for 20-30 sec at 12.000 rpm. The protein content of this homogenate was determined with the Bio-Rad (Bradford) Protein Assay (Biorad Laboratories GmbH, München, Germany) according to the instructions of the manufacturer using gamma globulin as the standard. This homogenate was stored at −80° C. in aliquots and thawed immediately prior to use.
(§2) Aliquots of membrane preparations were thawed at RT, resupended in assay buffer (D2, D3: 50 mM Tris-HCl, 120 mM NaCl, 5 mM MgCl2, 1 mM EDTA, 5 mM KCl, 1.5 mM CaCl2, pH=7.4; 5-HT2A: 50 mM Tris-HCl, 10 mM MgCl2, 1 mM EGTA, pH=7.4), homogenized with a Polytron for 20-30 sec at 12.000 rpm and adjusted to a final concentration of approximately 7.5 μg protein/well (D2, D3) and 15 μg protein/well (5-HT2A), respectively.
(§3) The binding affinity (Ki) of the compounds was determined using radioligand binding. Membranes were incubated in a total volume of 200 μl with a fixed concentration of radioligand (final concentration approximately 0.7 nM [^3H]-spiperone for D2, 0.5 nM [^3H]-spiperone for D3, and 1.1 nM [^3H]-ketanserin for 5-HT2A) and ten concentrations of test compound in ranging between 10 μM-0.1 nM for 1 h at RT. At the end of the incubation, the reaction mixtures were filtered on to unifilter 96-well white microplates with bonded GF/C filters (Packard BioScience, Zürich, Switzerland; preincubated for 1 h in 0.1% polyethylenimine (PEI) in assay buffer) with a Filtermate 196 harvester (Packard BioScience) and washed 3 times with cold assay buffer. The nonspecific binding was determined with equally composed reaction mixtures in the presence of 10 μM unlabelled spiperone. Per well 45 μl of Microscint 40 (Perkin Elmer, Schwerzenbach, Switzerland) was added, plates for sealed, shaken for 20 min and counted for 3 min on a Topcount Microplate Scintillation Counter (Can berra Packard SA, Zürich, Switzerland) with quenching correction.
(§4) The CPM value for each duplicate of a concentration of competing compound was averaged (y1), then the % specific binding was calculated according to the equation (((y1−non-specific)/(total binding−non-specific))×100). Graphs were plotted with the % specific binding using XLfit, a curve fitting program that iteratively plots the data using Levenberg-Marquardt algorithm. The single site competition analysis equation used was y=A+((B−A)/(1+((x/C)D))), where y is the % specific binding, A is the minimum y, B is the maximum y, C is the IC50, x is the log 10 of the concentration of the competing compound and D is the slope of the curve (the Hill Coefficient). […] The affinity constant (Ki) was calculated using the Cheng-Prusoff equation Ki=(IC50/1+([L]/Kd), where [L] is the concentration of radioligand and Kd is the dissociation constant of the radioligand at the receptor as determined by the saturation isotherm.

human D3 receptor = human D3 receptor (Homo sapiens (Human), UniProt P35462); assay: as above; settings: HEK293 EBNA cell membranes expressing human D3
Sequence of human D3 receptor (P35462 whole entry): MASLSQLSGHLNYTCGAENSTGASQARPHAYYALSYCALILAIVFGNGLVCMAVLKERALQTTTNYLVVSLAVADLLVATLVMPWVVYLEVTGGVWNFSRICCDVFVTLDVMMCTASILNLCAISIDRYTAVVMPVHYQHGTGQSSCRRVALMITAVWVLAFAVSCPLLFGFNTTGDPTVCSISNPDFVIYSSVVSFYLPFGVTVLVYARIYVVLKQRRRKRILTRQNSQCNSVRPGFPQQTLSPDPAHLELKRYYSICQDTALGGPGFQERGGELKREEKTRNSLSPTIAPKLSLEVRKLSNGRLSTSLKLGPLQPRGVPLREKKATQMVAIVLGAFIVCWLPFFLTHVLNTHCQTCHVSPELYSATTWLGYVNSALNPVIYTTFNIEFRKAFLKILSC
Experimental: as §1, §2, §3, §4

human 5-HT2A receptor = human 5-HT2A receptor (Homo sapiens (Human), UniProt P28223); assay: Radioligand binding ([3H]-ketanserin) to cloned receptors expressed in HEK-293 EBNA cells; settings: HEK293 EBNA cell membranes expressing human 5-HT2A
Sequence of human 5-HT2A receptor (P28223 whole entry): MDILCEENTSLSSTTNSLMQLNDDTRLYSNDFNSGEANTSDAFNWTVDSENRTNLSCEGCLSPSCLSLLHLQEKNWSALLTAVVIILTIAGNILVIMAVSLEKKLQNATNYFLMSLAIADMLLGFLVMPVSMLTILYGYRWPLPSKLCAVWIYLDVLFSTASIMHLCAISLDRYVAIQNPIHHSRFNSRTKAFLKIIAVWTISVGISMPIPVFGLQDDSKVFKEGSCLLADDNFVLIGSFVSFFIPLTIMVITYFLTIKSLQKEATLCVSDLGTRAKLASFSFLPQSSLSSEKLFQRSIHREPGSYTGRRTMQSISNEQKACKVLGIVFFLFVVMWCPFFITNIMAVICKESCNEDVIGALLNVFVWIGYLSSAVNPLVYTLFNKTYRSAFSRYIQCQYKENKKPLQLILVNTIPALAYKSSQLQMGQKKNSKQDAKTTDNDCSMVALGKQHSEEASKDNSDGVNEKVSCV
Experimental: as §1, §2, §3, §4

Sequence of human D2 receptor (P14416 whole entry): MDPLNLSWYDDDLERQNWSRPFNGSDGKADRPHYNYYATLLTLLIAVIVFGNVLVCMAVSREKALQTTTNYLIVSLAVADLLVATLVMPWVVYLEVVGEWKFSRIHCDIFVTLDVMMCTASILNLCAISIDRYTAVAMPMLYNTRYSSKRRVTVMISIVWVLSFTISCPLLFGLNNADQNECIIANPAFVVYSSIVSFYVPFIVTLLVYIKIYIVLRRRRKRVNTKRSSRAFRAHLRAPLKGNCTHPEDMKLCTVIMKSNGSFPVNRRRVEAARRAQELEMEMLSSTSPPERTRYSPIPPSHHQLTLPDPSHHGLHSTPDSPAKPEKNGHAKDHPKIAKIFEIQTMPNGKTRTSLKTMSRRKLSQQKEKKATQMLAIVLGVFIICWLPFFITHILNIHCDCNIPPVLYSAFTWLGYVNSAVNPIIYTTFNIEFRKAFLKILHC

Compound	Ki (human D2 receptor) [nM]	Ki (human D3 receptor) [nM]	Ki (human 5-HT2A receptor) [nM]	melting point [°C]
CC(=O)N[C@H]1CC[C@H](CCN2CCC(c3ccc(F)c4occc34)CC2)CC1 [Example 64, trans-N-(4-{2-[4-(7-Fluoro-benzofuran-4-yl)-piperidin-1-yl]-ethyl}-cyclohexyl)-acetamide]	404	9.72	33.3	203.5
CS(=O)(=O)N[C@H]1CC[C@H](CCN2CCC(c3cccc4c3CCO4)CC2)CC1 [Example 47, trans-N-(4-{2-[4-(2,3-Dihydro-benzofuran-4-yl)-piperidin-1-yl]-ethyl}-cyclohexyl)-methanesulfonamide]	328	10.1	35.2	152
COC(CC(=O)N[C@H]1CC[C@H](CCN2CCC(c3cccc4c3CCO4)CC2)CC1)OC [Example 82, trans-N-(4-{2-[4-(2,3-Dihydro-benzofuran-4-yl)-piperidin-1-yl]ethyl}-cyclohexyl)-3,3-dimethoxy-propionamide]	366	4.78	69.9	240
O=C(CO)N[C@H]1CC[C@H](CCN2CCC(c3cccc4c3CCO4)CC2)CC1 [Example 20, trans-N-(4-{2-[4-(2,3-Dihydro-benzofuran-4-yl)-piperidin-1-yl]-ethyl}-cyclohexyl)-2-hydroxy-acetamide]	571	10	25.3	154.5
Cc1nc(-c2ccc(C(=O)N[C@H]3CC[C@H](CCN4CCC(c5cccc6c5CCO6)CC4)CC3)cc2)no1 [Example 69, trans-N-(4-{2-[4-(2,3-Dihydro-benzofuran-4-yl)-piperidin-1-yl]-ethyl}-cyclohexyl)-4-(5-methyl-[1,2,4]oxadiazol-3-yl)-benzamide]	3730	14.9	54.5	256.5
CS(=O)(=O)c1ccc(C(=O)N[C@H]2CC[C@H](CCN3CCC(c4cccc5c4CCO5)CC3)CC2)s1 [Example 70, 5-Methanesulfonyl-thiophene-2-carboxylic acid trans-(4-{2-[4-(2,3-dihydro-benzofuran-4-yl)-piperidin-1-yl]-ethyl}-cyclohexyl)-amide]	195	6.63	31.4	255
Cc1cc(CC(=O)N[C@H]2CC[C@H](CCN3CCC(c4cccc5c4CCO5)CC3)CC2)on1 [Example 19, trans-N-(4-{2-[4-(2,3-Dihydro-benzofuran-4-yl)-piperidin-1-yl]-ethyl}-cyclohexyl)-2-(3-methyl-isoxazol-5-yl)-acetamide]	540	2	32.9	188
CCCC(=O)N[C@H]1CC[C@H](CCN2CCC(c3cccc4c3CCO4)CC2)CC1 [Example 73, trans-N-(4-{2-[4-(2,3-Dihydro-benzofuran-4-yl)-piperidin-1-yl]-ethyl}-cyclohexyl)-butyramide]	197	5.16	93.4	196
O=C(N[C@H]1CC[C@H](CCN2CCC(c3cccc4c3CCO4)CC2)CC1)C1CCCO1 (mixture of isomers) [Example 53, (RS)-Tetrahydro-furan-2-carboxylic acid trans-(4-{2-[4-(2,3-dihydro-benzofuran-4-yl)-piperidin-1-yl]-ethyl}-cyclohexyl)-amide]	–	41.5	13.1	160
O=C(N[C@H]1CC[C@H](CCN2CCC(c3cccc4c3CCO4)CC2)CC1)C1CCCOC1 (mixture of isomers) [Example 54, (RS)-Tetrahydro-pyran-3-carboxylic acid trans-(4-{2-[4-(2,3-dihydro-benzofuran-4-yl)-piperidin-1-yl]-ethyl}-cyclohexyl)-amide]	633	–	21.3	222
O=C(N[C@H]1CC[C@H](CCN2CCC(c3cccc4c3CCO4)CC2)CC1)C1(O)CCC1 [Example 39, 1-Hydroxy-cyclobutanecarboxylic acid trans-(4-{2-[4-(2,3-dihydro-benzofuran-4-yl)-piperidin-1-yl]-ethyl}-cyclohexyl)-amide]	306	27.3	12.3	–
O=C(CC1COCCO1)N[C@H]1CC[C@H](CCN2CCC(c3cccc4c3CCO4)CC2)CC1 (mixture of isomers) [Example 16, trans-N-(4-{2-[4-(2,3-Dihydro-benzofuran-4-yl)-piperidin-1-yl]-ethyl}-cyclohexyl)-rac-2-[1,4]dioxan-2-yl-acetamide]	–	–	22.3	192
O=C(C[C@H]1CCCO1)N[C@H]1CC[C@H](CCN2CCC(c3cccc4c3CCO4)CC2)CC1 [Example 31, trans-N-(4-{2-[4-(2,3-Dihydro-benzofuran-4-yl)-piperidin-1-yl]-ethyl}-cyclohexyl)-(R)-2-(tetrahydro-furan-2-yl)-acetamide]	–	–	–	192
O=C(C[C@@H]1COCCO1)N[C@H]1CC[C@H](CCN2CCC(c3cccc4c3CCO4)CC2)CC1 [Example 21, trans-N-(4-{2-[4-(2,3-Dihydro-benzofuran-4-yl)-piperidin-1-yl]-ethyl}-cyclohexyl)-(R)-2-[1,4]dioxan-2-yl-acetamide]	–	–	27.9	190
O=C(C[C@H]1COCCO1)N[C@H]1CC[C@H](CCN2CCC(c3cccc4c3CCO4)CC2)CC1 [Example 22, trans-N-(4-{2-[4-(2,3-Dihydro-benzofuran-4-yl)-piperidin-1-yl]-ethyl}-cyclohexyl)-(8)-2-[1,4]dioxan-2-yl-acetamide]	–	–	19.4	190
O=C(CC1COCCO1)N[C@H]1CC[C@H](CCN2CCC(c3cccc4occc34)CC2)CC1 (mixture of isomers) [Example 12, trans-N-{4-[2-(4-Benzofuran-4-yl-piperidin-1-yl)-ethyl]-cyclohexyl}-rac-2-[1,4]dioxan-2-yl-acetamide]	219	5.4	–	165
O=C(C[C@@H]1CCCO1)N[C@H]1CC[C@H](CCN2CCC(c3cccc4c3CCO4)CC2)CC1 [Example 32, trans-N-(4-{2-[4-(2,3-Dihydro-benzofuran-4-yl)-piperidin-1-yl]-ethyl}-cyclohexyl)-(S)-2-(tetrahydro-furan-2-yl)-acetamide]	–	–	–	192
CCC(C)C(=O)N[C@H]1CC[C@H](CCN2CCC(c3cccc4c3CCO4)CC2)CC1 (mixture of isomers) [Example 62, trans-N-(4-{2-[4-(2,3-Dihydro-benzofuran-4-yl)-piperidin-1-yl]-ethyl}-cyclohexyl)-(RS)-2-methyl-butyramide]	1200	–	64.4	210
O=C(N[C@H]1CC[C@H](CCN2CCC(c3cccc4c3CCO4)CC2)CC1)C(O)C(F)(F)F (mixture of isomers) [Example 37, trans-(RS)—N-(4-{2-[4-(2,3-Dihydro-benzofuran-4-yl)-piperidin-1-yl]-ethyl}-cyclohexyl)-3,3,3-trifluoro-2-hydroxy-propionamide]	241	9.2	–	179
O=C(CC1CCCO1)N[C@H]1CC[C@H](CCN2CCC(c3cccc4c3CCO4)CC2)CC1 (mixture of isomers) [Example 25, trans-N-(4-{2-[4-(2,3-Dihydro-benzofuran-4-yl)-piperidin-1-yl]-ethyl}-cyclohexyl)-rac-2-(tetrahydro-furan-2-yl)-acetamide]	–	–	–	192
